Data reported in PubChem BioAssay AID1963425 (Molecular Pharmacology Branch, DTP, NCI, 2024).
Values belong to the compound of their own block, whether it stands above or below them.

Test system: 323965-272-R-J2-PDC complex spheroid growth, % test/control
Test: Anticancer human tumor 323965-272-R-J2-PDC patient-derived pancreatic carcinoma cell line growth inhibition [Asc]
Details: for IC50: curve of first compound; for viability, T/C: stronger effect = lower value
In short: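 Concentration series start at each agent's clinical Cmax, or at 10 microM when none is established, and drop in half-log steps; agents are applied alone or together to complex spheroids built with HUVEC and hMSC.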

[1] = second compound 0.00316 µM, first compound 0.00316 µM
[2] = second compound 0.00316 µM, first compound 0.01 µM
[3] = second compound 0.00316 µM, first compound 0.0316 µM
[4] = second compound 0.00316 µM, first compound 0.1 µM
[5] = second compound 0.00316 µM, first compound 0.316 µM
[6] = second compound 0.00316 µM, first compound 1 µM
[7] = second compound 0.01 µM, first compound 0.00316 µM
[8] = second compound 0.01 µM, first compound 0.01 µM
[9] = second compound 0.01 µM, first compound 0.0316 µM
[10] = second compound 0.01 µM, first compound 0.1 µM
[11] = second compound 0.01 µM, first compound 0.316 µM
[12] = second compound 0.01 µM, first compound 1 µM
[13] = second compound 0.0316 µM, first compound 0.00316 µM
[14] = second compound 0.0316 µM, first compound 0.01 µM
[15] = second compound 0.0316 µM, first compound 0.0316 µM
[16] = second compound 0.0316 µM, first compound 0.1 µM
[17] = second compound 0.0316 µM, first compound 0.316 µM
[18] = second compound 0.0316 µM, first compound 1 µM
[19] = second compound 0.1 µM, first compound 0.00316 µM
[20] = second compound 0.1 µM, first compound 0.01 µM
[21] = second compound 0.1 µM, first compound 0.0316 µM
[22] = second compound 0.1 µM, first compound 0.1 µM
[23] = second compound 0.1 µM, first compound 0.316 µM
[24] = second compound 0.1 µM, first compound 1 µM
[25] = second compound 0.316 µM, first compound 0.00316 µM
[26] = second compound 0.316 µM, first compound 0.01 µM
[27] = second compound 0.316 µM, first compound 0.0316 µM
[28] = second compound 0.316 µM, first compound 0.1 µM
[29] = second compound 0.316 µM, first compound 0.316 µM
[30] = second compound 0.316 µM, first compound 1 µM
[31] = second compound 1 µM, first compound 0.00316 µM
[32] = second compound 1 µM, first compound 0.01 µM
[33] = second compound 1 µM, first compound 0.0316 µM
[34] = second compound 1 µM, first compound 0.1 µM
[35] = second compound 1 µM, first compound 0.316 µM
[36] = second compound 1 µM, first compound 1 µM
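Also: compound exposure lasted 7 days starting three days after spheroid seeding.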
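For viability, T/C in this document: 100% = DMSO vehicle control wells with viability set relative to vehicle.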

IC50 (second compound 0.00316 µM): > 1000 nM
IC50 (second compound 0.01 µM): > 1000 nM
IC50 (second compound 0.0316 µM): > 1000 nM
IC50 (second compound 0.1 µM): > 1000 nM
IC50 (second compound 0.316 µM): > 1000 nM
IC50 (second compound 1 µM): > 1000 nM
SMILES: CCN1CCN(Cc2ccc(Nc3ncc(F)c(-c4cc(F)c5nc(C)n(C(C)C)c5c4)n3)nc2)CC1 + CNC(C)C(=O)NC1CN(S(=O)(=O)c2cccc(S(=O)(=O)N3CCC4CCC(C(=O)NC(c5ccccc5)c5ccccc5)N4C(=O)C(NC(=O)C(C)NC)C3)c2)CCC2CCC(C(=O)NC(c3ccccc3)c3ccccc3)N2C1=O
viability, T/C [1]: 108%
viability, T/C [2]: 88.7%
viability, T/C [3]: 96.8%
viability, T/C [4]: 83.6%
viability, T/C [5]: 81.5%
viability, T/C [6]: 77.2%
viability, T/C [7]: 98.1%
viability, T/C [8]: 95%
viability, T/C [9]: 97.5%
viability, T/C [10]: 70%
viability, T/C [11]: 85.6%
viability, T/C [12]: 79%
viability, T/C [13]: 101%
viability, T/C [14]: 95.3%
viability, T/C [15]: 87.2%
viability, T/C [16]: 76.1%
viability, T/C [17]: 75%
viability, T/C [18]: 72.4%
viability, T/C [19]: 104%
viability, T/C [20]: 106%
viability, T/C [21]: 96.6%
viability, T/C [22]: 76.5%
viability, T/C [23]: 78.4%
viability, T/C [24]: 82.5%
viability, T/C [25]: 102%
viability, T/C [26]: 101%
viability, T/C [27]: 95.4%
viability, T/C [28]: 69.6%
viability, T/C [29]: 70.6%
viability, T/C [30]: 83.6%
viability, T/C [31]: 87.4%
viability, T/C [32]: 85.9%
viability, T/C [33]: 90.6%
viability, T/C [34]: 67.7%
viability, T/C [35]: 79.7%
viability, T/C [36]: 74.2%

IC50 (second compound 0.00316 µM): > 300 nM
IC50 (second compound 0.01 µM): > 300 nM
IC50 (second compound 0.0316 µM): > 300 nM
IC50 (second compound 0.1 µM): > 300 nM
IC50 (second compound 0.316 µM): > 300 nM
IC50 (second compound 1 µM): > 300 nM
SMILES: NC(=O)C(=Cn1cnc(-c2cc(C(F)(F)F)cc(C(F)(F)F)c2)n1)c1cncnc1 + CNC(C)C(=O)NC1CN(S(=O)(=O)c2cccc(S(=O)(=O)N3CCC4CCC(C(=O)NC(c5ccccc5)c5ccccc5)N4C(=O)C(NC(=O)C(C)NC)C3)c2)CCC2CCC(C(=O)NC(c3ccccc3)c3ccccc3)N2C1=O
viability, T/C (second compound 0.00316 µM, first compound 0.000949 µM): 121%
viability, T/C (second compound 0.00316 µM, first compound 0.003 µM): 120%
viability, T/C (second compound 0.00316 µM, first compound 0.00949 µM): 97.1%
viability, T/C (second compound 0.00316 µM, first compound 0.03 µM): 99.6%
viability, T/C (second compound 0.00316 µM, first compound 0.0949 µM): 70.7%
viability, T/C (second compound 0.00316 µM, first compound 0.3 µM): 76.2%
viability, T/C (second compound 0.01 µM, first compound 0.000949 µM): 103%
viability, T/C (second compound 0.01 µM, first compound 0.003 µM): 108%
viability, T/C (second compound 0.01 µM, first compound 0.00949 µM): 109%
viability, T/C (second compound 0.01 µM, first compound 0.03 µM): 91.1%
viability, T/C (second compound 0.01 µM, first compound 0.0949 µM): 78.8%
viability, T/C (second compound 0.01 µM, first compound 0.3 µM): 62.5%
viability, T/C (second compound 0.0316 µM, first compound 0.000949 µM): 103%
viability, T/C (second compound 0.0316 µM, first compound 0.003 µM): 109%
viability, T/C (second compound 0.0316 µM, first compound 0.00949 µM): 108%
viability, T/C (second compound 0.0316 µM, first compound 0.03 µM): 86.7%
viability, T/C (second compound 0.0316 µM, first compound 0.0949 µM): 74.5%
viability, T/C (second compound 0.0316 µM, first compound 0.3 µM): 61.7%
viability, T/C (second compound 0.1 µM, first compound 0.000949 µM): 105%
viability, T/C (second compound 0.1 µM, first compound 0.003 µM): 104%
viability, T/C (second compound 0.1 µM, first compound 0.00949 µM): 104%
viability, T/C (second compound 0.1 µM, first compound 0.03 µM): 87%
viability, T/C (second compound 0.1 µM, first compound 0.0949 µM): 80.4%
viability, T/C (second compound 0.1 µM, first compound 0.3 µM): 62.5%
viability, T/C (second compound 0.316 µM, first compound 0.000949 µM): 107%
viability, T/C (second compound 0.316 µM, first compound 0.003 µM): 111%
viability, T/C (second compound 0.316 µM, first compound 0.00949 µM): 96.3%
viability, T/C (second compound 0.316 µM, first compound 0.03 µM): 93.6%
viability, T/C (second compound 0.316 µM, first compound 0.0949 µM): 77.1%
viability, T/C (second compound 0.316 µM, first compound 0.3 µM): 62.4%
viability, T/C (second compound 1 µM, first compound 0.000949 µM): 101%
viability, T/C (second compound 1 µM, first compound 0.003 µM): 104%
viability, T/C (second compound 1 µM, first compound 0.00949 µM): 77.3%
viability, T/C (second compound 1 µM, first compound 0.03 µM): 83.7%
viability, T/C (second compound 1 µM, first compound 0.0949 µM): 78.4%
viability, T/C (second compound 1 µM, first compound 0.3 µM): 71%

IC50 (second compound 0.00316 µM): 97.8 nM
IC50 (second compound 0.01 µM): 77.1 nM
IC50 (second compound 0.0316 µM): 80.6 nM
IC50 (second compound 0.1 µM): 92.4 nM
IC50 (second compound 0.316 µM): 70.6 nM
IC50 (second compound 1 µM): 53.5 nM
SMILES: O=C(c1ccc(F)c(F)c1Nc1ccc(I)cc1F)N1CC(O)([C@@H]2CCCCN2)C1 + CNC(C)C(=O)NC1CN(S(=O)(=O)c2cccc(S(=O)(=O)N3CCC4CCC(C(=O)NC(c5ccccc5)c5ccccc5)N4C(=O)C(NC(=O)C(C)NC)C3)c2)CCC2CCC(C(=O)NC(c3ccccc3)c3ccccc3)N2C1=O
viability, T/C [1]: 117%
viability, T/C [2]: 99.1%
viability, T/C [3]: 77.5%
viability, T/C [4]: 50.1%
viability, T/C [5]: 27.3%
viability, T/C [6]: 18.5%
viability, T/C [7]: 105%
viability, T/C [8]: 90.3%
viability, T/C [9]: 60.8%
viability, T/C [10]: 47.7%
viability, T/C [11]: 28.2%
viability, T/C [12]: 13.2%
viability, T/C [13]: 94.5%
viability, T/C [14]: 96.3%
viability, T/C [15]: 64.3%
viability, T/C [16]: 47.9%
viability, T/C [17]: 25.7%
viability, T/C [18]: 14.4%
viability, T/C [19]: 102%
viability, T/C [20]: 90.9%
viability, T/C [21]: 81.6%
viability, T/C [22]: 46.4%
viability, T/C [23]: 23.6%
viability, T/C [24]: 13.1%
viability, T/C [25]: 110%
viability, T/C [26]: 82.8%
viability, T/C [27]: 71.5%
viability, T/C [28]: 41.8%
viability, T/C [29]: 22%
viability, T/C [30]: 11.3%
viability, T/C [31]: 92.8%
viability, T/C [32]: 85.6%
viability, T/C [33]: 57.3%
viability, T/C [34]: 39%
viability, T/C [35]: 18.8%
viability, T/C [36]: 9.3%
